Reference: DBAASP
In brackets after ≈: the same amount, converted by molar mass.

Tests used:
Assay in all cases: ≥ marks a high value that may be exact or a test limit, other limits are often not marked, values filed in µg/mL are converted to µM
[1] = test system: Staphylococcus aureus NCTC 8325
[2] = test system: Candida albicans ATCC 90028
[3] = test system: Escherichia coli ATCC 25922
[4] = test system: Staphylococcus aureus NCTC 10788

| SMILES | MIC [1] [µM] | MIC [2] [µM] | MIC [3] [µM] | MIC [4] [µM] |
| --- | --- | --- | --- | --- |
| CC[C@H](C)[C@@H]1NC(=O)[C@H](C)NC(=O)[C@@H](NC(=O)[C@H](Cc2ccccc2)NC(=O)[C@@H](NC(=O)[C@H](CCCCN)NC(=O)[C@H](CO)NC(=O)[C@H](Cc2ccccc2)NC(=O)[C@@H](NC(=O)[C@H](CCCCN)NC(=O)[C@H](C)NC(=O)[C@H](C)NC(=O)[C@@H](NC(=O)[C@H](CO)NC(=O)[C@H](C)NC(=O)[C@@H](NC(=O)[C@@H](NC(=O)[C@@H]2CCCN2C(=O)[C@H](CC(C)C)NC(=O)[C@@H](N)Cc2ccccc2)[C@@H](C)CC)[C@@H](C)CC)C(C)C)C(C)C)[C@@H](C)CC)CSSC[C@@H](C(=O)O)NC(=O)[C@H](CCCCN)NC(=O)[C@H](CCCCN)NC(=O)[C@H](CO)NC1=O [FLPIIASVAAKVFSKIFCAISKKC] | 7 (≈ 18.1 µg/mL) | 7 (≈ 18.1 µg/mL) | 5 (≈ 12.9 µg/mL) | – |
| CC[C@H](C)[C@H](NC(=O)CN)C(=O)N[C@@H](Cc1ccccc1)C(=O)N[C@@H](CC(N)=O)C(=O)N[C@H](C(=O)N[C@@H](Cc1ccccc1)C(=O)N[C@@H](CCCCN)C(=O)NCC(=O)N[C@@H](C)C(=O)N[C@@H](CC(C)C)C(=O)N[C@@H](CCCCN)C(=O)N[C@H](C(=O)N[C@@H](C)C(=O)NCC(=O)N[C@@H](CCCCN)C(=O)N[C@@H](Cc1cnc[nH]1)C(=O)N[C@H](C(=O)N[C@@H](C)C(=O)NCC(=O)N[C@@H](CO)C(=O)N[C@@H](CC(C)C)C(=O)N[C@@H](CC(C)C)C(=O)N[C@@H](CC(N)=O)C(=O)N[C@@H](CCC(N)=O)C(=O)N[C@@H](CC(C)C)C(=O)N[C@@H](CCCCN)C(=O)N[C@H]1CSSC[C@@H](C(=O)O)NC(=O)[C@H](CCC(=O)O)NC(=O)CNC(=O)[C@H](CO)NC(=O)[C@H](C(C)C)NC(=O)[C@H](CCCCN)NC1=O)C(C)C)[C@@H](C)O)C(C)C [GIFNVFKGALKTAGKHVAGSLLNQLKCKVSGEC] | 9 (≈ 30.8 µg/mL) | ≥ 40 | 4 (≈ 13.7 µg/mL) | – |
| CC[C@H](C)[C@H](NC(=O)[C@@H](NC(=O)[C@@H]1CCCN1C(=O)[C@H](CC(C)C)NC(=O)[C@@H](N)Cc1ccccc1)C(C)C)C(=O)N[C@@H](C)C(=O)NCC(=O)N[C@@H](CC(C)C)C(=O)N[C@@H](CC(C)C)C(=O)N[C@@H](CO)C(=O)N[C@@H](CCCCN)C(=O)N[C@@H](CC(C)C)C(=O)N[C@@H](Cc1ccccc1)C(N)=O [FLPVIAGLLSKLF] | 8 (≈ 11.3 µg/mL) | – | – | 8 (≈ 11.3 µg/mL) |
| CC[C@H](C)[C@H](NC(=O)[C@H](CCCCN)NC(=O)CNC(=O)[C@H](Cc1ccccc1)NC(=O)[C@H](CC(C)C)NC(=O)CN)C(=O)N[C@@H](CC(C)C)C(=O)NCC(=O)N[C@H](C(=O)NCC(=O)N[C@@H](CCCCN)C(=O)N[C@@H](CCCCN)C(=O)N[C@H](C(=O)N[C@@H](CC(C)C)C(=O)N[C@H]1CSSC[C@@H](C(=O)O)NC(=O)[C@H](CCSC)NC(=O)CNC(=O)[C@H](CO)NC(=O)[C@H](CC(C)C)NC(=O)CNC1=O)C(C)C)C(C)C [GLFGKILGVGKKVLCGLSGMC] | 12.5 (≈ 26 µg/mL) | ≥ 50 | 3 (≈ 6.24 µg/mL) | – |
| CC[C@H](C)[C@H](NC(=O)[C@H](CCCCN)NC(=O)[C@H](CC(=O)O)NC(=O)[C@H](CC(C)C)NC(=O)[C@H](C)NC(=O)[C@H](CO)NC(=O)[C@H](C)NC(=O)[C@H](CC(C)C)NC(=O)[C@H](CC(C)C)NC(=O)[C@H](CC(N)=O)NC(=O)[C@H](CCCCN)NC(=O)[C@H](C)NC(=O)[C@H](C)NC(=O)CNC(=O)[C@H](CCCCN)NC(=O)[C@H](Cc1ccccc1)NC(=O)[C@@H](NC(=O)[C@H](CC(=O)O)NC(=O)[C@H](CCSC)NC(=O)[C@H](CC(C)C)NC(=O)CN)C(C)C)C(=O)N[C@@H](CCCN=C(N)N)C(=O)N[C@H]1CSSC[C@@H](C(=O)O)NC(=O)[C@H](CCCCN)NC(=O)[C@H]([C@@H](C)O)NC(=O)[C@H](C(C)C)NC(=O)[C@H](CCCCN)NC1=O [GLMDVFKGAAKNLLASALDKIRCKVTKC] | ≥ 100 | ≥ 100 | 13 (≈ 38.9 µg/mL) | – |
